Data reported in BindingDB's records for PubMed 33650861 (Sichuan University, 2021).

Assay: Inhibition of BET (unknown origin)

## Cc1sc2c(c1C)C(c1ccc(Cl)cc1)=N[C@@H](CC(=O)OC(C)(C)C)c1nnc(C)n1-2
  IC50: 0.5 µM
